# How the values were obtained:
# Assay in all cases: cells
# Conditions in all cases: Homo sapiens
# A388 = format: functional, cell-based;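 further: growth inhibition of human A388 cells, read out with a cell viability assay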
# Description: SANGER: Inhibition of human A388 cell growth in a cell viability assay.
# MZ7-mel = format: functional, cell-based;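 further: growth inhibition of human MZ7-mel cells, measured by a cell viability assay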
# Description: SANGER: Inhibition of human MZ7-mel cell growth in a cell viability assay.
# KGN = format: functional, cell-based;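 further: growth inhibition of KGN cells, read out with a cell viability assay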
# Description: SANGER: Inhibition of human KGN cell growth in a cell viability assay.
# HT-144 = format: functional, cell-based
# Description: SANGER: Inhibition of human HT-144 cell growth in a cell viability assay.
# SHP77 = format: functional, cell-based, SHP-77;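 further: growth inhibition of human SHP-77 cells measured by a cell viability assay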
# Description: SANGER: Inhibition of human SHP-77 cell growth in a cell viability assay.
# EW-24 = format: functional, cell-based;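 further: human EW-24 cancer cell line, growth inhibition read out via a cell viability assay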
# Description: SANGER: Inhibition of human EW-24 cell growth in a cell viability assay.
# ES3 = format: functional, cell-based;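 further: growth inhibition of ES3 cells, read out with a cell viability assay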
# Description: SANGER: Inhibition of human ES3 cell growth in a cell viability assay.
# KM12 = format: functional, cell-based;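 further: KM12 cell growth inhibition, read out with a cell viability assay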
# Description: SANGER: Inhibition of human KM12 cell growth in a cell viability assay.
# LS-123 = format: functional, cell-based
# Description: SANGER: Inhibition of human LS-123 cell growth in a cell viability assay.
# NCI-H69 = format: functional, cell-based;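 further: growth inhibition of the cell line, read out with a cell viability assay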
# Description: SANGER: Inhibition of human NCI-H69 cell growth in a cell viability assay.
# SK-MEL-2 = format: functional, cell-based;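 further: growth inhibition of human SK-MEL-2 cells measured with a cell viability assay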
# Description: SANGER: Inhibition of human SK-MEL-2 cell growth in a cell viability assay.
# ACN = format: functional, cell-based;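 further: growth inhibition of the human ACN cell line, read out via cell viability testing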
# Description: SANGER: Inhibition of human ACN cell growth in a cell viability assay.
# LB771-HNC = format: functional, cell-based;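 further: growth inhibition of LB771-HNC human cells, read out with a cell viability assay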
# Description: SANGER: Inhibition of human LB771-HNC cell growth in a cell viability assay.
# JAR = format: functional, cell-based;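 further: growth inhibition of human JAR cells determined with a cell viability assay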
# Description: SANGER: Inhibition of human JAR cell growth in a cell viability assay.
# A3-KAW = format: functional, cell-based;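 further: growth inhibition of human A3-KAW cells, read out with a cell viability assay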
# Description: SANGER: Inhibition of human A3-KAW cell growth in a cell viability assay.
# COR-L88 = format: functional, cell-based;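 further: growth inhibition of COR-L88 cells, read out with a cell viability assay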
# Description: SANGER: Inhibition of human COR-L88 cell growth in a cell viability assay.
# KY821 = format: functional, cell-based;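 further: growth inhibition of human KY821 cells, read out by a cell viability assay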
# Description: SANGER: Inhibition of human KY821 cell growth in a cell viability assay.
# A101D = format: functional, cell-based;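 further: growth inhibition of the cell line, measured with a viability assay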
# Description: SANGER: Inhibition of human A101D cell growth in a cell viability assay.
# QIMR-WIL = format: functional, cell-based;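 further: growth inhibition of QIMR-WIL cells, read out with a cell viability assay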
# Description: SANGER: Inhibition of human QIMR-WIL cell growth in a cell viability assay.
# GB-1 = format: functional, cell-based;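 further: growth of GB-1 cells judged by a viability assay, IC50 marks the concentration inhibiting growth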
# Description: SANGER: Inhibition of human GB-1 cell growth in a cell viability assay.
# OCI-AML2 = format: functional, cell-based;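 further: growth inhibition of OCI-AML2 cells, read out with a cell viability assay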
# Description: SANGER: Inhibition of human OCI-AML2 cell growth in a cell viability assay.
# OS-RC-2 = format: functional, cell-based;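 further: growth inhibition of human OS-RC-2 cells, measured by a cell viability assay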
# Description: SANGER: Inhibition of human OS-RC-2 cell growth in a cell viability assay.
# COLO-800 = format: functional, cell-based;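 further: growth inhibition of COLO-800 cells, read out with a cell viability assay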
# Description: SANGER: Inhibition of human COLO-800 cell growth in a cell viability assay.
# SBC-1 = format: functional, cell-based;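 further: cell viability assay measuring growth inhibition of the SBC-1 cell line, IC50 being the concentration that halves growth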
# Description: SANGER: Inhibition of human SBC-1 cell growth in a cell viability assay.
# C8166 = format: functional, cell-based;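 further: growth inhibition of human C8166 cells measured by a cell viability assay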
# Description: SANGER: Inhibition of human C8166 cell growth in a cell viability assay.
# COLO-668 = format: functional, cell-based
# Description: SANGER: Inhibition of human COLO-668 cell growth in a cell viability assay.
# SJSA-1 = format: functional, cell-based;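 further: growth inhibition of human SJSA-1 cells, read out through a cell viability measurement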
# Description: SANGER: Inhibition of human SJSA-1 cell growth in a cell viability assay.
# ES8 = format: functional, cell-based;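 further: growth inhibition of human ES8 cells, read out with a cell viability assay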
# Description: SANGER: Inhibition of human ES8 cell growth in a cell viability assay.
# EW-3 = format: functional, cell-based;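 further: cell viability assay read-out, IC50 reflects inhibition of growth of the EW-3 cells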
# Description: SANGER: Inhibition of human EW-3 cell growth in a cell viability assay.
# EW-18 = format: functional, cell-based;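 further: growth inhibition of EW-18 cells, read out by a cell viability assay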
# Description: SANGER: Inhibition of human EW-18 cell growth in a cell viability assay.
# HuTu80 = format: functional, cell-based, HUTU-80;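 further: growth inhibition of HuTu80 human cells, determined with a cell viability readout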
# Description: SANGER: Inhibition of human HUTU-80 cell growth in a cell viability assay.
# SNU-5 = format: functional, cell-based;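 further: cell viability readout used to measure growth inhibition in human NCI-SNU-5 cells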
# Description: SANGER: Inhibition of human NCI-SNU-5 cell growth in a cell viability assay.
# EOL1 = format: functional, cell-based;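 further: growth inhibition of EoL-1 cells, read out by a cell viability assay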
# Description: SANGER: Inhibition of human EoL-1-cell cell growth in a cell viability assay.
# SK-PN-DW = format: functional, cell-based;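 further: growth inhibition measured with a viability assay on these cells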
# Description: SANGER: Inhibition of human SK-PN-DW cell growth in a cell viability assay.
# RKO = format: functional, cell-based;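 further: growth inhibition of human RKO cells, read out with a cell viability assay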
# Description: SANGER: Inhibition of human RKO cell growth in a cell viability assay.
# LNCaP-Clone-FGC = format: functional, cell-based
# Description: SANGER: Inhibition of human LNCaP-Clone-FGC cell growth in a cell viability assay.
# NCI-H1155 = format: functional, cell-based;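 further: cell growth inhibition measured by a viability assay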
# Description: SANGER: Inhibition of human NCI-H1155 cell growth in a cell viability assay.
# BB30-HNC = format: functional, cell-based;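 further: growth inhibition of the cultured cell line, read out by a cell viability assay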
# Description: SANGER: Inhibition of human BB30-HNC cell growth in a cell viability assay.
# BE-13 = format: functional, cell-based;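 further: growth inhibition of human BE-13 cells, measured with a cell viability assay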
# Description: SANGER: Inhibition of human BE-13 cell growth in a cell viability assay.
# LB831-BLC = format: functional, cell-based;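 further: growth inhibition of LB831-BLC cells, read out with a cell viability assay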
# Description: SANGER: Inhibition of human LB831-BLC cell growth in a cell viability assay.
# KMOE-2 = format: functional, cell-based;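 further: growth inhibition of human KMOE-2 cells, read out with a cell viability assay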
# Description: SANGER: Inhibition of human KMOE-2 cell growth in a cell viability assay.
# NB6 = format: functional, cell-based;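 further: growth inhibition of NB6 cells, read out by a cell viability assay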
# Description: SANGER: Inhibition of human NB6 cell growth in a cell viability assay.
# SK-N-FI = format: functional, cell-based;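 further: cell viability assay measuring growth inhibition of human SK-N-FI cells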
# Description: SANGER: Inhibition of human SK-N-FI cell growth in a cell viability assay.
# Calu-6 = format: functional, cell-based;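 further: growth of human Calu-6 cells, read out by a cell viability assay, IC50 marking inhibition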
# Description: SANGER: Inhibition of human Calu-6 cell growth in a cell viability assay.
# EW-1 = format: functional, cell-based
# Description: SANGER: Inhibition of human EW-1 cell growth in a cell viability assay.
# NCI-H209 = format: functional, cell-based;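 further: growth inhibition of human NCI-H209 cells, measured by a cell viability assay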
# Description: SANGER: Inhibition of human NCI-H209 cell growth in a cell viability assay.
# TE-10 = format: functional, cell-based;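 further: growth inhibition of TE-10 cells, measured by a cell viability assay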
# Description: SANGER: Inhibition of human TE-10 cell growth in a cell viability assay.
# DMS-114 = format: functional, cell-based
# SW872 = format: functional, cell-based;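 further: growth inhibition of SW872 cells, read out by a viability assay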
# Description: SANGER: Inhibition of human SW872 cell growth in a cell viability assay.
# IST-MEL1 = format: functional, cell-based;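 further: growth inhibition of the cell line, read out with a cell viability assay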
# Description: SANGER: Inhibition of human IST-MEL1 cell growth in a cell viability assay.
# NCI-H446 = format: functional, cell-based;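 further: growth inhibition of NCI-H446 cells determined by a cell viability assay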
# Description: SANGER: Inhibition of human NCI-H446 cell growth in a cell viability assay.
# GCIY = format: functional, cell-based;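 further: growth inhibition of the human GCIY cell line, read out by a cell viability assay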
# Description: SANGER: Inhibition of human GCIY cell growth in a cell viability assay.
# GOTO = format: functional, cell-based;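 further: growth inhibition of GOTO cells, read out by a cell viability assay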
# Description: SANGER: Inhibition of human GOTO cell growth in a cell viability assay.
# LB2241-RCC = format: functional, cell-based
# Description: SANGER: Inhibition of human LB2241-RCC cell growth in a cell viability assay.
# CCRF-CEM = format: functional, cell-based
# Description: SANGER: Inhibition of human CCRF-CEM cell growth in a cell viability assay.
# TE-6 = format: functional, cell-based
# Description: SANGER: Inhibition of human TE-6 cell growth in a cell viability assay.
# ES1 = format: functional, cell-based
# Description: SANGER: Inhibition of human ES1 cell growth in a cell viability assay.
# LS-513 = format: functional, cell-based
# Description: SANGER: Inhibition of human LS-513 cell growth in a cell viability assay.
# IST-SL1 = format: functional, cell-based
# Description: SANGER: Inhibition of human IST-SL1 cell growth in a cell viability assay.
# K5 = format: functional, cell-based
# Description: SANGER: Inhibition of human K5 cell growth in a cell viability assay.
# RXF 393 = format: functional, cell-based
# Description: SANGER: Inhibition of human RXF393 cell growth in a cell viability assay.
# P30-OHK = format: functional, cell-based
# Description: SANGER: Inhibition of human P30-OHK cell growth in a cell viability assay.
smiles,measurement,setting,value
CCn1c(-c2nonc2N)nc2cnc(Oc3cccc(NC(=O)c4ccc(OCCN5CCOCC5)cc4)c3)cc21 [GSK-269962A],IC50,A388,> 2500 nM
same,IC50,MZ7-mel,> 2500 nM
same,IC50,KGN,567 nM
same,IC50,HT-144,> 2500 nM
same,IC50,SHP77,> 2500 nM
same,IC50,EW-24,> 2500 nM
same,IC50,ES3,> 2500 nM
same,IC50,KM12,> 2500 nM
same,IC50,LS-123,> 2500 nM
same,IC50,NCI-H69,> 2500 nM
same,IC50,SK-MEL-2,> 2500 nM
same,IC50,ACN,> 2500 nM
same,IC50,LB771-HNC,> 2500 nM
same,IC50,JAR,> 2500 nM
same,IC50,A3-KAW,> 2500 nM
same,IC50,COR-L88,> 2500 nM
same,IC50,KY821,> 2500 nM
same,IC50,A101D,1870 nM
same,IC50,QIMR-WIL,490 nM
same,IC50,GB-1,> 2500 nM
same,IC50,OCI-AML2,> 2500 nM
same,IC50,OS-RC-2,> 2500 nM
same,IC50,COLO-800,> 2500 nM
same,IC50,SBC-1,> 2500 nM
same,IC50,C8166,> 2500 nM
same,IC50,COLO-668,> 2500 nM
same,IC50,SJSA-1,1050 nM
same,IC50,ES8,819 nM
same,IC50,EW-3,> 2500 nM
same,IC50,EW-18,> 2500 nM
same,IC50,HuTu80,> 2500 nM
same,IC50,SNU-5,> 2500 nM
same,IC50,EOL1,> 2500 nM
same,IC50,SK-PN-DW,> 2500 nM
same,IC50,RKO,> 2500 nM
same,IC50,LNCaP-Clone-FGC,> 2500 nM
same,IC50,NCI-H1155,> 2500 nM
same,IC50,BB30-HNC,> 2500 nM
same,IC50,BE-13,141 nM
same,IC50,LB831-BLC,> 2500 nM
same,IC50,KMOE-2,> 2500 nM
same,IC50,NB6,591 nM
same,IC50,SK-N-FI,> 2500 nM
same,IC50,Calu-6,> 2500 nM
same,IC50,EW-1,> 2500 nM
same,IC50,NCI-H209,> 2500 nM
same,IC50,TE-10,> 2500 nM
same,IC50,DMS-114,> 2500 nM
same,IC50,SW872,887 nM
same,IC50,IST-MEL1,> 2500 nM
same,IC50,NCI-H446,> 2500 nM
same,IC50,GCIY,> 2500 nM
same,IC50,GOTO,> 2500 nM
same,IC50,LB2241-RCC,> 2500 nM
same,IC50,CCRF-CEM,> 2500 nM
same,IC50,TE-6,> 2500 nM
same,IC50,ES1,> 2500 nM
same,IC50,LS-513,> 2500 nM
same,IC50,IST-SL1,2170 nM
same,IC50,K5,> 2500 nM
same,IC50,RXF 393,393 nM
same,IC50,P30-OHK,> 2500 nM

# — ChEMBL document CHEMBL1201861, “Genomics of Drug Sensitity in Cancer screening data, Wellcome Trust Sanger Institute”
